Test results published in patent US20240287463A1, “INDUCIBLE TISSUE CONSTRUCTS AND USES THEREOF” (Massachusetts Institute of Technology, priority 2020, published 2024).

Test system: iCasp9-GFP J2s
Experiment: cell viability / removal from monolayer culture (CellTiter-Glo)
Format: cell-based
Details: after CID exposure (500 nM, 50 nM, 5 nM in FIG. 1G)
From the text: Inducible caspase-9 (iCasp9), which is activated by treatment with a small molecule chemical inducer of dimerization (CID; also known as rapalog, an analog of rapamycin) and leads to subsequent cell death through the intrinsic apoptosis pathway was utilized (FIG. 1A). The safety and efficacy of the iCasp9 transgene and CID have previously been shown in vitro and in vivo in animals and humans (A. Di Stasi, et al. (2011) dx.doi.org/10.1056/NEJMoa1106152; T. Gargett and M. P. Brown (2014) Front. Pharmacol. 5; K. C. Straathof, et al. (2005) Blood 105, 4247, each of which is herein incorporated by this reference). To generate inducible cells, 3T3-J2 fibroblasts (‘J2’) were transduced with lentivirus with a bidirectional expression cassette encoding iCasp9 and GFP genes (#15567 pMSCV-F-del Casp9.IRES.GFP; cloned to a lentivirus plasmid backbone with an SFFV promoter). FACS was used to enrich the infected population for the 15% highest-expression GFP+ cells. […]
After iCasp9-GFP J2 fibroblasts were exposed to CID, iCasp9 dimers were detected by staining with a caspase-9 antibody (FIG. 1C). […] To confirm that CID-triggered caspase-9 activation led to apoptosis, unfixed cells were stained with Annexin V, which binds to an early indicator of apoptosis, and SYTOX, a general marker of cell death, and analyzed by flow cytometry.

CC[C@H](C(=O)N1CCCC[C@H]1C(=O)O[C@H](CCc1ccc(OC)c(OC)c1)c1cccc(OCC(=O)NCC(CNC(=O)COc2cccc([C@@H](CCc3ccc(OC)c(OC)c3)OC(=O)[C@@H]3CCCCN3C(=O)[C@@H](CC)c3cc(OC)c(OC)c(OC)c3)c2)CN(C)C)c1)c1cc(OC)c(OC)c(OC)c1 [CID, AP20187]
time to efficient removal from culture: ≤ 1 h
